Key:
[1] = test system: velvetleaf; assay: Test A pre-/postemergence greenhouse test; assay type: in vivo, Abutilon theophrasti; settings: for Plant response rating, Velvetleaf: 0 to 100 scale where 0 is no effect and 100 is complete control; for Velvetleaf plant response rating: 0 to 100 scale
Outline: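 Visual injury ratings against untreated controls, taken roughly ten days after treatment in greenhouse. Plants were sprayed postemergence at one- to two-leaf stage (2–10 cm tall); at the same time, seeded loam/sand soil received a directed preemergence spray. Formulation: non-phytotoxic solvent mixture with surfactant.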

[2] = test system: blackgrass; assay: Test C pre-/postemergence test; assay type: in vivo, Alopecurus myosuroides; settings: for Plant response rating, Blackgrass: 31 g ai/ha, scale 0 to 100 (0 no effect, 100 complete control)
Outline: (§1)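 Compounds in a non-phytotoxic solvent with surfactant applied preemergence to seeded pots and, at the same time, postemergence to plants 2–18 cm tall (1- to 4-leaf stage). Paddy tests: pots flooded to 3 cm, compound applied into the water, depth held throughout.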

[3] = test system: downy brome; assay: Test C pre-/postemergence test; assay type: in vivo, Bromus tectorum; settings: for Plant response rating, Bromegrass, Downy: 31 g ai/ha, scale 0 to 100 (0 no effect, 100 complete control)
Outline: as §1

[4] = test system: green foxtail; assay: Test C pre-/postemergence test; assay type: in vivo, Setaria viridis; settings: for Plant response rating, Foxtail, Green: 31 g ai/ha, scale 0 to 100 (0 no effect, 100 complete control)
Outline: as §1

[5] = test system: Italian ryegrass; assay: Test C pre-/postemergence test; assay type: in vivo, Lolium multiflorum; settings: for Plant response rating, Ryegrass, Italian: 31 g ai/ha, scale 0 to 100 (0 no effect, 100 complete control)
Outline: as §1

[6] = test system: wild oat; assay: Test C pre-/postemergence test; assay type: in vivo, Avena fatua; settings: for Plant response rating, Oat, Wild: 31 g ai/ha, scale 0 to 100 (0 no effect, 100 complete control)
Outline: as §1

[7] = test system: catchweed bedstraw; assay: Test C pre-/postemergence test; assay type: in vivo, Galium aparine; settings: for Plant response rating, Galium: 31 g ai/ha, scale 0 to 100 (0 no effect, 100 complete control)
Outline: as §1

[8] = test system: cocklebur; assay: Test C pre-/postemergence test; assay type: in vivo, Xanthium strumarium; settings: for Plant response rating, Cocklebur: 31 g ai/ha, scale 0 to 100 (0 no effect, 100 complete control)
Outline: as §1

[9] = test system: corn; assay: Test C pre-/postemergence test; assay type: in vivo, Zea mays; settings: for Plant response rating, Corn: 31 g ai/ha, scale 0 to 100 (0 no effect, 100 complete control)
Outline: as §1

[10] = test system: woolly cupgrass; assay: Test C pre-/postemergence test; assay type: in vivo, Eriochloa villosa; settings: for Plant response rating, Cupgrass, Woolly: 31 g ai/ha, scale 0 to 100 (0 no effect, 100 complete control)
Outline: as §1

[11] = test system: giant foxtail; assay: Test C pre-/postemergence test; assay type: in vivo, Setaria faberii
Outline: as §1

[12] = test system: johnsongrass; assay: Test C pre-/postemergence test; assay type: in vivo, Sorghum halepense; settings: for Plant response rating, Johnsongrass: 31 g ai/ha, scale 0 to 100 (0 no effect, 100 complete control)
Outline: as §1

[13] = test system: morningglory; assay: Test C pre-/postemergence test; assay type: in vivo, Ipomoea coccinea; settings: for Plant response rating, Morningglory: 31 g ai/ha, scale 0 to 100 (0 no effect, 100 complete control)
Outline: as §1

[14] = test system: soybean; assay: Test C pre-/postemergence test; assay type: in vivo, Glycine max; settings: for Plant response rating, Soybean: 31 g ai/ha, scale 0 to 100 (0 no effect, 100 complete control)
Outline: as §1

[15] = test system: velvetleaf; assay: Test C pre-/postemergence test; assay type: in vivo, Abutilon theophrasti; settings: for Plant response rating, Velvetleaf: 31 g ai/ha, scale 0 to 100 (0 no effect, 100 complete control)
Outline: as §1

[16] = test system: duck salad; assay: Test C flooded paddy test; assay type: in vivo, Heteranthera limosa; settings: Flood
Outline: (§2)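 Test compounds are applied straight into paddy water held 3 cm above the soil surface, with that flood maintained for the whole test. After 13 to 15 days in the greenhouse, each species is scored visually relative to controls.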

[17] = test system: barnyardgrass; assay: Test C flooded paddy test; assay type: in vivo, Echinochloa crus-galli; settings: Flood
Outline: as §2

[18] = Postemergence, 500 g ai/ha, 0 is no effect, 100 is complete control
[19] = Preemergence, 125 g ai/ha, 0 no effect, 100 complete control
[20] = 62 g ai/ha, Preemergence, scale 0 to 100
[21] = preemergence, 250 g ai/ha, scale 0 (no effect) to 100 (complete control)
[22] = 125 g ai/ha, preemergence, scale 0 (no effect) to 100 (complete control)
[23] = 31 g ai/ha, scale 0 to 100 (0 no effect, 100 complete control)
[24] = 62 g ai/ha, scale 0 to 100, 0 no effect, 100 complete control, 13 to 15 days
[25] = 125 g ai/ha, scale 0 to 100, 0 no effect, 100 complete control, 13 to 15 days
[26] = 250 g ai/ha, scale 0 to 100, 0 no effect, 100 complete control, 13 to 15 days
[27] = 62 g ai/ha, scale 0 to 100 (0 no effect, 100 complete control)

## Cn1nc(C(F)(F)F)c(C[S+]([O-])c2ccc(F)c[n+]2[O-])c1Cl (centres unmarked) [Compound 54]
[1]; Postemergence, 125 g ai/ha
  Plant response rating, Velvetleaf: 10
[1]; [18]
  Velvetleaf plant response rating: 70
[1]; [19]
  Velvetleaf plant response rating: 30
[1]; Preemergence, 500 g ai/ha
  Plant response rating, Velvetleaf: 70
[2]; [20]
  Blackgrass plant response rating: 50
[2]; Preemergence
  Plant response rating, Blackgrass: 0
[2]; [21]
  Blackgrass plant response rating: 85
[3]; [20]
  Bromegrass, Downy plant response rating: 0
[3]; [22]
  Bromegrass, Downy plant response rating: 10
[3]; Preemergence
  Plant response rating, Bromegrass, Downy: 0
[3]; [21]
  Bromegrass, Downy plant response rating: 60
[4]; [20]
  Foxtail, Green plant response rating: 95
[4]; [22]
  Foxtail, Green plant response rating: 95
[4]; Preemergence
  Plant response rating, Foxtail, Green: 60
[4]; [21]
  Foxtail, Green plant response rating: 95
[5]; [20]
  Ryegrass, Italian plant response rating: 45
[5]; [22]
  Ryegrass, Italian plant response rating: 70
[5]; Preemergence
  Plant response rating, Ryegrass, Italian: 0
[5]; [21]
  Ryegrass, Italian plant response rating: 98
[6]; [20]
  Oat, Wild plant response rating: 10
[6]; [22]
  Oat, Wild plant response rating: 30
[6]; Preemergence
  Plant response rating, Oat, Wild: 0
[6]; [21]
  Oat, Wild plant response rating: 40
[7]; [20]
  Galium plant response rating: 0
[7]; [22]
  Galium plant response rating: 85
[7]; Preemergence
  Plant response rating, Galium: 0
[7]; [21]
  Galium plant response rating: 85
[8]; [20]
  Cocklebur plant response rating: 0
[8]; [22]
  Cocklebur plant response rating: 0
[8]; Preemergence
  Plant response rating, Cocklebur: 0
[8]; [21]
  Cocklebur plant response rating: 0
[9]; [20]
  Corn plant response rating: 80
[9]; [22]
  Corn plant response rating: 85
[9]; Preemergence
  Plant response rating, Corn: 55
[9]; [21]
  Corn plant response rating: 98
[10]; [20]
  Cupgrass, Woolly plant response rating: 85
[10]; [22]
  Cupgrass, Woolly plant response rating: 95
[10]; Preemergence
  Plant response rating, Cupgrass, Woolly: 85
[10]; [21]
  Cupgrass, Woolly plant response rating: 98
[11]; [20]
  Foxtail, Giant plant response rating: 98
[11]; [22]
  Foxtail, Giant plant response rating: 100
[11]; Preemergence, 31 g ai/ha, scale 0 to 100 (0 no effect, 100 complete control)
  Plant response rating, Foxtail, Giant: 85
[11]; [21]
  Foxtail, Giant plant response rating: 100
[12]; [20]
  Johnsongrass plant response rating: 95
[12]; [22]
  Johnsongrass plant response rating: 100
[12]; Preemergence
  Plant response rating, Johnsongrass: 90
[12]; [21]
  Johnsongrass plant response rating: 100
[13]; [20]
  Morningglory plant response rating: 100
[13]; [22]
  Morningglory plant response rating: 100
[13]; Preemergence
  Plant response rating, Morningglory: 100
[13]; [21]
  Morningglory plant response rating: 100
[14]; Preemergence
  Plant response rating, Soybean: 0
[14]; [21]
  Soybean plant response rating: 60
[15]; [20]
  Velvetleaf plant response rating: 0
[15]; [22]
  Velvetleaf plant response rating: 5
[15]; Preemergence
  Plant response rating, Velvetleaf: 0
[15]; [21]
  Velvetleaf plant response rating: 85
[16]; [23]
  Plant response rating, Ducksalad: 0
[16]; [24]
  Plant response rating, Ducksalad: 0
[16]; [25]
  Plant response rating, Ducksalad: 0
[16]; [26]
  Plant response rating, Ducksalad: 85
[17]; [23]
  Plant response rating, Barnyardgrass: 0
[17]; [24]
  Plant response rating, Barnyardgrass: 20
[17]; [25]
  Plant response rating, Barnyardgrass: 65
[17]; [26]
  Plant response rating, Barnyardgrass: 80

## Cc1cc[n+]([O-])c(S(=O)(=O)Cc2c(C(F)(F)C(F)(F)F)nn(C)c2OCC(F)(F)F)c1 [Compound 99]
[1]; Postemergence, 125 g ai/ha
  Plant response rating, Velvetleaf: 30
[1]; [18]
  Velvetleaf plant response rating: 60
[1]; [19]
  Velvetleaf plant response rating: 20
[1]; Preemergence, 500 g ai/ha, 0 no effect, 100 complete control
  Velvetleaf plant response rating: 100
[2]; [20]
  Blackgrass plant response rating: 100
[2]; [22]
  Blackgrass plant response rating: 100
[2]; Preemergence
  Plant response rating, Blackgrass: 80
[2]; [21]
  Blackgrass plant response rating: 100
[3]; [20]
  Bromegrass, Downy plant response rating: 50
[3]; [22]
  Bromegrass, Downy plant response rating: 60
[3]; Preemergence
  Plant response rating, Bromegrass, Downy: 30
[3]; [21]
  Bromegrass, Downy plant response rating: 70
[4]; [20]
  Foxtail, Green plant response rating: 80
[4]; [22]
  Foxtail, Green plant response rating: 100
[4]; Preemergence
  Plant response rating, Foxtail, Green: 80
[4]; [21]
  Foxtail, Green plant response rating: 100
[5]; [20]
  Ryegrass, Italian plant response rating: 70
[5]; [22]
  Ryegrass, Italian plant response rating: 75
[5]; Preemergence
  Plant response rating, Ryegrass, Italian: 70
[5]; [21]
  Ryegrass, Italian plant response rating: 100
[6]; [20]
  Oat, Wild plant response rating: 80
[6]; [22]
  Oat, Wild plant response rating: 95
[6]; Preemergence
  Plant response rating, Oat, Wild: 30
[6]; [21]
  Oat, Wild plant response rating: 95
[7]; [20]
  Galium plant response rating: 100
[7]; [22]
  Galium plant response rating: 100
[7]; Preemergence
  Plant response rating, Galium: 100
[7]; [21]
  Galium plant response rating: 100
[8]; [20]
  Cocklebur plant response rating: 0
[8]; [22]
  Cocklebur plant response rating: 0
[8]; Preemergence
  Plant response rating, Cocklebur: 0
[8]; [21]
  Cocklebur plant response rating: 30
[9]; [20]
  Corn plant response rating: 0
[9]; [22]
  Corn plant response rating: 30
[9]; Preemergence
  Plant response rating, Corn: 0
[9]; [21]
  Corn plant response rating: 50
[10]; [20]
  Cupgrass, Woolly plant response rating: 0
[10]; [22]
  Cupgrass, Woolly plant response rating: 70
[10]; Preemergence
  Plant response rating, Cupgrass, Woolly: 0
[10]; [21]
  Cupgrass, Woolly plant response rating: 85
[11]; [20]
  Foxtail, Giant plant response rating: 85
[11]; [22]
  Foxtail, Giant plant response rating: 100
[11]; [21]
  Foxtail, Giant plant response rating: 100
[12]; [20]
  Johnsongrass plant response rating: 90
[12]; [22]
  Johnsongrass plant response rating: 100
[12]; Preemergence
  Plant response rating, Johnsongrass: 40
[12]; [21]
  Johnsongrass plant response rating: 100
[13]; [20]
  Morningglory plant response rating: 100
[13]; [22]
  Morningglory plant response rating: 100
[13]; Preemergence
  Plant response rating, Morningglory: 65
[13]; [21]
  Morningglory plant response rating: 100
[14]; [20]
  Soybean plant response rating: 25
[14]; [22]
  Soybean plant response rating: 30
[14]; Preemergence
  Plant response rating, Soybean: 0
[14]; [21]
  Soybean plant response rating: 98
[15]; [20]
  Velvetleaf plant response rating: 80
[15]; [22]
  Velvetleaf plant response rating: 100
[15]; Preemergence
  Plant response rating, Velvetleaf: 0
[15]; [21]
  Velvetleaf plant response rating: 100
[16]; [27]
  Plant response rating, Ducksalad: 0
[16]; [26]
  Plant response rating, Ducksalad: 65
[17]; [27]
  Plant response rating, Barnyardgrass: 0
[17]; [26]
  Plant response rating, Barnyardgrass: 20
